From patent US6465205B2, “In vitro cell culture device including cartilage and methods of using the same” (The Research Foundation of State University of New York, priority 1999, dated 2002) come the findings set out here.

Assay [1] relates to matrix metalloproteinases (MMP-2, MMP-9) in chondrocyte-conditioned medium. Kind of assay: Gelatin zymography for MMP activity. Type of assay: biochemical, bovine or porcine.
Method: Cell viability and number were determined by Trypan blue staining and counting using a hemocytometer. Chondrocytes were plated on collagen inserts (Costar Transwell, VWR, Pittsburgh, Pa.) at 20-40×10^6 cells/well in DMEM/F12 containing antibiotics, 10% FBS, and 50 μg/ml ascorbic acid (prepared fresh and added every other day). After the chondrocytes had formed a layer of extracellular matrix (approximately 2 weeks), the medium was switched to serum free (DMEM/F12 with antibiotics, 5 μg/ml insulin, 15 μg/ml bovine pituitary extract, 10 μg/ml epidermal growth factor, 5 μg/ml transferrin, 1 μM hydrocortisone, 10^−8 M retinol, and ascorbic acid). Cultures were fed from the bottom every 3-4 days. Medium was collected from chondrocyte cultures on days 3, 5, 7, 10, and 14 after switching from 10% FBS-containing medium to SFM. […]
CCM or SFM, obtained as described above, was mixed with 2× sample buffer (20 mM DTT, 4% SDS, 50 mM Tris, 20% glycine, 0.002% Bromophenol blue), loaded without prior heating, and electrophoresed under non-reducing conditions at 4° C. for approximately 4 hours under constant voltage. […] Gels were rinsed twice with distilled water then stained for 1 hour in Coomassie blue stain, followed by destaining in water/methanol/acetic acid (6:3.5:0.5) until clear areas of enzyme activity were detected against a blue background. […]
In assay [2] the test system is respiratory epithelial cells. Put plainly: Proliferation of respiratory epithelial cells (cell number by hemocytometer count). Type of assay: cell-based, porcine. As to the method:
Porcine tracheal tissue obtained at necropsy was cleaned of debris, rinsed thoroughly with PBS, and epithelium and submucosa removed and soaked overnight at 4° C. in MEM containing antibiotics/antimycotics. Dissociated respiratory epithelial cells were isolated using elastase digestion as described by Hicks et al. (“Rapid Isolation of Upper Respiratory Epithelial Cells,” Mol. Biol. Cell., 5(Suppl.): 118a (Abstract), (1995); Hicks et al., “Isolation and Characterization of Basal Cells from Human Upper Respiratory Epithelium,” Exp. Cell Res. 237:357-363 (1997), which are hereby incorporated by reference) and plated on top of type I collagen-coated 35 mm petri dishes at 0.2×10^6 cells/cm^2 in serum free medium. In selected experiments, cells were cultured in Biocoat type I collagen-coated 24 well plates. Medium was collected for gelatin zymography as described above.
The proliferative effects of CCM on REC were assessed by addition of CCM diluted 1:1 with SFM. REC cultures grown on type I collagen were fed 0.1 ml CCM or control SFM daily, and media were changed completely every 3 days. […] After incubation at 37° C. for 20 minutes, REC were again washed with PBS/10% FBS, then resuspended in PBS and an aliquot counted using Trypan blue dye exclusion to determine viability and cell number. […]

For the compound `O=C(O)CN(CCN(CC(=O)O)CC(=O)O)CC(=O)O` [EDTA, ethylenediamine tetraacetic acid], in assay [1] (developing buffer containing 20 mM EDTA (FIG. 5B)), the “MMP enzyme activity on zymogram developed in presence of chelator” value is “enzyme activity was abolished”.
As to `CNC(=O)[C@H](Cc1c[nH]c2ccccc12)NC(=O)[C@@H](CC(=O)NO)CC(C)C` [GM6001], in assay [2] (5 nM, REC cultured with or without CCM, cell number after 7 days), the “Effect on REC proliferation” value is listed as “nor was proliferation positively affected”. In addition, the “Restoration of REC proliferation to control levels” value in assay [2] (concentrations of 10 and 50 W, in presence of CCM (FIG. 8)) is reported as “proliferation was not restored to control levels”. The “Block of MMP (marker protein) activity in pooled CCM by gelatin zymography” value in assay [1] (5 nM, medium of day 3 and day 7 (FIGS. 7A-B)) was “did not block marker protein activity”.
